Publication PMC9877305, “Cytotoxic hexadepsipeptides and anti-coronaviral 4-hydroxy-2-pyridones from an endophytic Fusarium sp” (Frontiers in Chemistry, 2023)
Converted amounts (≈) assume the structure as drawn.

Experiments:
[1] = system: human pancreatic cancer cell line (ASPC-1); assay: Cytotoxic activity by CCK-8 method; type: cell-based
Method: The cytotoxic effects of all compounds against human pancreatic cancer cell line (ASPC-1) were evaluated by CCK-8 method.

H460 cells = assay: Half toxic concentration in the antiviral assay host cells; type: cell-based
Method: (§1) Briefly, the H460 cells were inoculated into 96 well culture plates and cultured at 35°C under 5% CO2 condition, and infected by HCoV-OC43 virus with 100 times 50% tissue culture infective dose (TCID50) 24 h later; then the positive control drugs and test compounds were added. The half inhibitory concentration (IC50) and the half toxic concentration (TC50) were determined by the Reed and Muench method. The selectivity index (SI) was calculated as the ratio of TC50/IC50.

coronavirus (HCoV-OC43) = assay: microbe, parasite or virus in culture; type: cell-based; conditions: for SI (TC50/IC50): HCoV-OC43 in H460 cells
Method: as §1

[2] = system: pancreatic cancer cell line PANC-1; design: method as in Wang et al., 2019; conditions: PANC-1 cells; ref Wang et al., 2019; cited from earlier work
[3] = Homo sapiens, ASPC1, AsPC-1 cells
[4] = Betacoronavirus 1, OC43, NCI-H460, HCoV-OC43 (100 TCID50) in H460 cells

Molecule | IC50 [1, 3] | TC50 (H460 cells) | IC50 (coronavirus (HCoV-OC43); [4]) | further results
CC(C)C(O)C(=O)N(C)C(Cc1ccccc1)C(=O)OC(C(=O)N(C)C(Cc1ccccc1)C(=O)OC(C(=O)N(C)C(Cc1ccccc1)C(=O)O)C(C)C)C(C)C (centres unmarked) [Compound 1, Secobeauvericin A] | > 90 µM |  |  | 
CC(C)C1OC(=O)C(Cc2ccccc2)NC(=O)C(C(C)C)OC(=O)C(Cc2ccccc2)N(C)C(=O)C(C(C)C)OC(=O)C(Cc2ccccc2)NC1=O (centres unmarked) [Compound 2, Beauvericin M] | > 90 µM |  |  | melting point: 85 to 86 °C
CC1OC(=O)C(Cc2ccccc2)N(C)C(=O)C(C(C)C)OC(=O)C(Cc2ccccc2)N(C)C(=O)C(C(C)C)OC(=O)C(Cc2ccccc2)N(C)C1=O (centres unmarked) [Compound 3, Beauvericin N] | > 90 µM |  |  | melting point: 82 to 83 °C
CC(C)C1OC(=O)C(Cc2ccccc2)N(C)C(=O)C(C(C)C)OC(=O)C(Cc2ccccc2)N(C)C(=O)C(C(C)C)OC(=O)C(Cc2ccccc2)NC1=O (centres unmarked) [Compound 5, beauvericin D] | > 90 µM |  |  | 
CC[C@H](C)C[C@@H](C)/C=C(\C)[C@@H]1O[C@H](c2c(O)c(-c3ccc(O)cc3)cn(C)c2=O)CC[C@H]1C [Compound 6, (–)-sambutoxin] | > 90 µM | <0.02 mg/L |  | 
CC[C@H](C)C[C@@H](C)/C=C(\C)[C@@H]1O[C@H](c2c(O)c([C@@]3(O)CCC(=O)C[C@@H]3O)cn(C)c2=O)CC[C@H]1C [Compound 7, (–)-oxysporidinone] | 17.6 µM | 23.09 mg/L (≈ 47.2 µM) | 13.3 mg/L (≈ 27.2 µM) | SI (TC50/IC50) (coronavirus (HCoV-OC43)): 1.7
CC[C@H](C)C[C@@H](C)/C=C(\C)[C@@H]1O[C@H](c2c3c(cn(C)c2=O)[C@@]2(O)CCC(=O)C[C@@H]2O3)CC[C@H]1C [Compound 8, fusapyridon A] | 29.7 µM | 11.55 mg/L (≈ 24.5 µM) | 6.67 mg/L (≈ 14.1 µM) | IC50 (coronavirus (HCoV-OC43); Betacoronavirus 1, OC43, NCI-H460, HCoV-OC43, unit as printed in running text): 6.65 mg/L (≈ 14.1 µM); SI (TC50/IC50) (coronavirus (HCoV-OC43)): 1.7
CC[C@H](C)C[C@@H](C)/C=C(\C)[C@@H]1O[C@H](c2c3c(cn(C)c2=O)[C@@]2(OC)CCC(=O)C[C@@H]2O3)CC[C@H]1C [Compound 9, (–)-fusoxypyridone] | 18.8 µM | 11.55 mg/L (≈ 23.8 µM) | > 6.67 mg/L | 
CC(C)=CCc1c(O)cc(O)c(C=O)c1C(=O)c1c(O)cc(C)c(Cl)c1O [E] |  |  |  | IC50 [2]: 7.2 µM
Nc1ccn([C@@H]2O[C@H](CO)[C@@H](O)C2(F)F)c(=O)n1 [Gemcitabine, gemcitabine, reference compound] | 1.53 µM |  |  | 
NC(=O)c1ncn([C@@H]2O[C@H](CO)[C@@H](O)[C@H]2O)n1 [Ribavirin, ribavirin, reference compound] |  | 100 mg/L (≈ 409 µM) | 19.2 mg/L (≈ 78.8 µM) | SI (TC50/IC50) (coronavirus (HCoV-OC43)): 5.2
beauvericin [Compound 4] |  |  |  | IC50 ([1]; AsPC-1 cells): 3.45 µM
